# From patent US12091406B2, “Lysine acetyltransferase 6A (KAT6A) inhibitors and uses thereof” (Insilico Medicine IP Limited, priority 2021, dated 2024)
# Tests used:
# [1] = Kinetic solubility in 50 mM phosphate buffer (pH 7.4); type: physicochemical; conditions: comparison in words, data of Table 3
# Protocol: 10 μL of 10 mM in DMSO of test and control compounds was added into lower chambers of whatman miniuniprep vials, respectively. 490 μL of 50 mM PB (pH 7.4) was added into lower chambers of the whatman miniuniprep vials, respectively. The solubility samples were vortexted for at least 2 minutes. The miniuniprep vials were shaken on a shaker for 24 hours at room temperature at the speed of 800 rpm and then centrifuged for 20 minutes (eg. 4000 rpm). The miniunipreps were compressed to prepare the filtrates for injection into HPLC system to calculate the concentration with standard curve.
# Caco-2 cells = assay: Permeability in Caco-2 Assay; type: in vitro ADME; conditions: comparison in words, data of Table 4
# Protocol: Permeability of test compounds was determined in Caco-2 Assay. Caco-2 cells purchased from ATCC were seeded onto […] (PET) in 96-well Corning Insert plates at 1×10^5 cells/cm2, and refreshed medium every 4˜5 days until to the 21st to 28th day for confluent cell monolayer formation. The transport buffer in the study was HBSS with 10.0 mM HEPES at pH 7.40±0.05. Test compound was tested at 2.00 μM bi-directionally in duplicate. Digoxin was tested at 10.0 μM bi-directionally in duplicate, while nadolol and metoprolol were tested at 2.00 μM in A to B direction in duplicate. Final DMSO concentration was adjusted to less than 1%. The plate was incubated for 2 hours in CO2 incubator at 37±1° C., with 5% CO2 at saturated humidity without shaking. And all samples after mixed with acetonitrile containing internal standard were centrifuged at 3200×g for 10 min. For nadolol and metoprolol, 200 μL supernatant solution was diluted with 600 μL ultra-pure water for LC-MS/MS analysis. For digoxin and test compounds, 200 μL supernatant solution was diluted with 200 μL ultra-pure water for LC-MS/MS analysis. Concentrations of test and control compounds in starting solution, donor solution, and receiver solution were quantified by LC-MS/MS methodologies, using peak area ratio of analyte/internal standard. […]
compound,measurement,setting,value
"COc1cccc(OC)c1S(=O)(=O)Nc1noc2cc(Oc3nccs3)c3c(c12)OCCC3 [Compound 35, 2,6-dimethoxy-N-(5-(thiazol-2-yloxy)-3,4-dihydro-2H-chromeno[8,7-d]isoxazol-9-yl)benzenesulfonamide]",kinetic solubility compared with otherwise identical compound having X as carbon,[1],improved kinetic solubility
same,permeability compared with reference compound,Caco-2 cells,improved permeability
